Data as given in patent publication US11014908B2, “Chemical compounds” (Pfizer Inc., priority 2018, dated 2021).

Assays:
[1] = target: T1, purified sickle cell hemoglobin (HbS) (Homo sapiens, UniProt P68871+P69905, E7V); assay: Binding affinity to purified HbS by Surface Plasmon Resonance (SPR); conditions: crosslinked biotinylated HbS, 1:1 binding model
T1 construct: HbS was obtained from the blood of homozygous S/S patients; from tissue; host or cells: red blood cells of homozygous S/S patients
Method: Binding Affinity, Kd (uM)
The binding affinity for compounds to purified sickle cell hemoglobin (HbS) was determined using Surface Plasmon Resonance (SPR). Patient Sickle Cell blood was obtained from Boston Children's Hospital in accordance with Institutional Review Board protocols. HbS was obtained from the blood of homozygous S/S patients, and purified using the method described in: Antonini and Brunori, Hemoglobin and Myoglobin in their Reactions with Ligands. Amsterdam, London, North-Holland Publishing Company, 1971. Whole blood was separated into red blood cell and plasma components by centrifugation, after which the plasma was decanted and discarded. Packed red blood cells were washed with normal saline (0.9% NaCl) and then lysed by 2:1 dilution with cold deionized water. The hemolysate was centrifuged to remove cellular debris, and further purified with the addition of Drabkin's Buffer (2.8 M potassium phosphate), and centrifugation with Celite®. Organic phosphates (2,3-BPG) were removed via gel filtration with Sephadex® G-25. HbS and wild-type hemoglobin, hemoglobin A (HbA), were separated by […], using diethylaminoethyl (DEAE)-Sepharose® fast flow, and eluted using a pH gradient from pH 8.5-pH 7.5. Purity of the resulting HbS and HbA was determined by native gel electrophoresis and HbS fractions used further.
To stabilize the tetrameric structure of hemoglobin, HbS was crosslinked between the beta subunits (Lys82-Lys82) using bis(3,5-dibromosalicyl) fumarate, as described in: Shibayama N. et al, J Am Chem Soc 2014, 136, 13, 5097-5105 and Shibayama N. et al, Biochemistry 1991, 39, 33, 8158-8165). Crosslinked HbS was subsequently biotynylated and captured on a custom made Streptavidin sensor to achieve protein density of 4000 to 5000 resonance units (RUs) on the surface. Compound binding to HbS using SPR was tested on Sierra Sensors MASS-1 instrument. The running buffer contained 100 mM Potassium Phosphate, pH 7.5, 0.005% Tween-20, 1 mM ethylenediaminetetraacetic acid (EDTA), 0.1 mg/mL bovine serum albumin with 1% DMSO. Compound samples were injected at a flow rate of 30 μL/min for 2 minutes association and at least 5 minutes of dissociation time. A 2- or 3-fold dilution series containing at least 4 concentrations were tested for each compound. The dose range was selected based on the activity of the compounds in biochemical assays, when available. Multiple blank injections of running buffer were run before and after each compound series to allow blank subtraction for compound data in the analysis software. Positive controls were run in each experiment to monitor and maintain the activity of HbS on the surface. A DMSO curve was run at the beginning of each data set to apply an excluded volume correction to the data during analysis. The data were processed and analyzed using Sierra Sensors and Scrubber 2.0 software. The binding affinities (dissociation constant Kd) were calculated by fitting the sensorgrams to a 1:1 binding model.

HbS = target: T2, HbS (Homo sapiens, UniProt P68871+P69905, E7V); assay: 'R'-'T' assay (conversion of oxy HbS to deoxy HbS under deoxygenating conditions); format: biochemical; conditions: 50% inhibition of HbS 'R'-'T' conversion; 3 uM HbS, <1% O2
T2 construct: HbS was obtained from the blood of homozygous S/S patients; from tissue; host or cells: red blood cells of homozygous S/S patients
Method: Conversion from oxy (R, relaxed state) to deoxy (T, tense state) HbS in the presence of compound was performed to determine the ability of compounds to stabilize the oxy (R) state under deoxygenating conditions. The assay run was similar to the ‘Oxygen dissociation assay’ described in Oksenberg et al, Br J Haematology, 2016, 175, 141-153.
Assay ready compound plates were prepared by first preparing a master serial dilution plate from a 30 mM initial compound stock in 100% DMSO. From this master serial dilution plate, 167 nL of the desired compound concentration was delivered to the assay ready plates using acoustical dispensing. Plates were frozen at −20° C. until needed. Purified HbS-O2 (i.e. oxy HbS) was diluted to 3 uM in 100 mM potassium phosphate buffer, pH=7.4. 50 uL of 3 uM stock solution was added to each well of the assay ready plate and mechanically mixed eight times. Following mixing the plates were covered and incubated at room temperature for one hour with moderate shaking. Following incubation, the plates were placed in a deoxygenated environment (<1% O2) for two hours, and the conversion to deoxy HbS monitored as a function of time. Oxygenated and deoxygenated forms of hemoglobin were detected using the absorbance of the Soret peaks at 415 and 430 nm respectively, and absorbance measurements (optical density, OD) were taken at 0, 90 and 120 minutes. Background absorbance for correction was collected at 700 nm.
Data were analyzed by first subtracting baseline absorbance at 700 nm from 415 nm and 430 nm data at each timepoint, and then taking the ratio of 415/430 nm data (Ratio=[(OD415−OD700)/(OD430−OD700)]. The effect at each timepoint was calculated using the ratios from the previous calculation at time 0 and each time point of interest (Effect^time x=Ratio^time x/Ratio^time 0). Percent effect was calculated by comparing the effects of compound versus HbS only with the effects observed by the positive control compound tucaresol (percent effect=[(effect^time x compound−effect^time x HbS)/(effect^time x tucaresol−effect^time x HbS)]×100). Data were reported as the percent effect for a single point. Calculations to determine the concentration of compound for 50% inhibition (IC50 (uM)) of the HbS ‘R’-‘T’ conversion were based on the percent effect at varying compound concentration.

Compound	Kd [1] [nM]	IC50 (HbS) [nM]
C[C@H](Oc1cc2cc(Br)ccc2nc1N)c1cc(C(N)=O)ccc1-n1cccn1 (single isomer, unassigned) [Example 3]	67	5060
C[C@H](Oc1cc2cc(F)ccc2nc1N)c1cc(CC(=O)O)ccc1-n1cccn1 (single isomer, unassigned) [Example 8]	271	7180
C[C@H](Oc1cc2cc(F)ccc2nc1N)c1cc2[nH]ncc2cc1-n1cccn1 (single isomer, unassigned) [Example 59]	47	4500
C[C@H](Oc1cc2cc(C(N)=O)ccc2nc1N)c1cc2c(cnn2CCO)cc1-n1cccn1 (single isomer, unassigned) [Example 74]	59	4280
CC(Oc1cc2cc(C(N)=O)c(F)cc2nc1N)c1cc2[nH]ncc2cc1-n1cccn1 (stereo in doubt) [Example 65, 2-amino-7-fluoro-3-{(1R)-1-[5-(1H-pyrazol-1-yl)-1H-indazol-6-yl]ethoxy}quinoline-6-carboxamide]	15	6170
C[C@H](Oc1cc2cc(F)ccc2nc1N)c1cc(C(N)=O)c(F)cc1-n1cccn1 [Example 1, 5-{(1S)-1-[(2-amino-6-fluoroquinolin-3-yl)oxy]ethyl}-2-fluoro-4-(1H-pyrazol-1-yl)benzamide]	20	4500
C[C@H](Oc1cc2cc(F)c(Cl)cc2nc1N)c1cc(C(N)=O)c(F)cc1-n1cccn1 [Example 2, 5-{(1S)-1-[(2-amino-7-chloro-6-fluoroquinolin-3-yl)oxy]ethyl}-2-fluoro-4-(1H-pyrazol-1-yl)benzamide]	21	6820
C[C@H](Oc1cc2cc(F)ccc2nc1N)c1cc(-c2n[nH]c(=O)o2)ccc1-n1cccn1 [Example 5, 5-[3-{(1S)-1-[(2-amino-6-fluoroquinolin-3-yl)oxy]ethyl}-4-(1H-pyrazol-1-yl)phenyl]-1,3,4-oxadiazol-2(3H)-one]	14	4380
COC(=O)c1ccc(-n2cccn2)c([C@H](C)Oc2cc3cc(F)ccc3nc2N)c1 [Example 6, methyl 3-{(1S)-1-[(2-amino-6-fluoroquinolin-3-yl)oxy]ethyl}-4-(1H-pyrazol-1-yl)benzoate]	35	4480
C[C@H](Oc1cc2cc(F)ccc2nc1N)c1cc(S(N)(=O)=O)ccc1-n1cccn1 [Example 7, 3-{(1S)-1-[(2-amino-6-fluoroquinolin-3-yl)oxy]ethyl}-4-(1H-pyrazol-1-yl)benzenesulfonamide]	126	–
C[C@H](Oc1cc2cc(F)ccc2nc1N)c1cc(C(=O)O)c(F)cc1-n1cccn1 [Example 9, 5-{(1S)-1-[(2-amino-6-fluoroquinolin-3-yl)oxy]ethyl}-2-fluoro-4-(1H-pyrazol-1-yl)benzoic Acid]	87	4720
C[C@H](Oc1cc2cc(F)ccc2nc1N)c1cc(C(=O)NCC(=O)O)ccc1-n1cccn1 [Example 10, N-[3-{(1S)-1-[(2-amino-6-fluoroquinolin-3-yl)oxy]ethyl}-4-(1H-pyrazol-1-yl)benzoyl]glycine]	211	5860
COCCNC(=O)c1ccc(-n2cccn2)c([C@H](C)Oc2cc3cc(F)ccc3nc2N)c1 [Example 11, 3-{(1S)-1-[(2-amino-6-fluoroquinolin-3-yl)oxy]ethyl}-N-(2-methoxyethyl)-4-(1H-pyrazol-1-yl)benzamide]	61	4350
C[C@H](Oc1cc2cc(F)ccc2nc1N)c1cc(C(=O)NCCO)ccc1-n1cccn1 [Example 12, 3-{(1S)-1-[(2-amino-6-fluoroquinolin-3-yl)oxy]ethyl}-N-(2-hydroxyethyl)-4-(1H-pyrazol-1-yl)benzamide]	38	4480
C[C@H](Oc1cc2cc(F)ccc2nc1N)c1cc(C(=O)NCCCO)ccc1-n1cccn1 [Example 13, 3-{(1S)-1-[(2-amino-6-fluoroquinolin-3-yl)oxy]ethyl}-N-(3-hydroxypropyl)-4-(1H-pyrazol-1-yl)benzamide]	65	4330
C[C@H](Oc1cc2cc(F)ccc2nc1N)c1cc(C(=O)N[C@H]2C[C@H](O)C2)ccc1-n1cccn1 [Example 14, 3-{(1S)-1-[(2-amino-6-fluoroquinolin-3-yl)oxy]ethyl}-N-(trans-3-hydroxycyclobutyl)-4-(1H-pyrazol-1-yl)benzamide]	41	4300
C[C@H](Oc1cc2cc(F)ccc2nc1N)c1cc(OCC(=O)O)ccc1-n1cccn1 [Example 15, [3-{(1S)-1-[(2-amino-6-fluoroquinolin-3-yl)oxy]ethyl}-4-(1H-pyrazol-1-yl)phenoxy]acetic Acid]	63	3890
C[C@H](Oc1cc2cc(F)ccc2nc1N)c1cc(CCC(=O)O)ccc1-n1cccn1 [Example 16, 3-[3-{(1S)-1-[(2-amino-6-fluoroquinolin-3-yl)oxy]ethyl}-4-(1H-pyrazol-1-yl)phenyl]propanoic Acid]	188	3600
C[C@H](Oc1cc2cc(F)ccc2nc1N)c1cc(-c2noc(=O)[nH]2)ccc1-n1cccn1 [Example 17, 3-[3-{(1S)-1-[(2-amino-6-fluoroquinolin-3-yl)oxy]ethyl}-4-(1H-pyrazol-1-yl)phenyl]-1,2,4-oxadiazol-5(4H)-one]	14	5050
C[C@H](Oc1cc2cc(F)ccc2nc1N)c1cc(NS(C)(=O)=O)ccc1-n1cccn1 [Example 18, N-[3-{(1S)-1-[(2-amino-6-fluoroquinolin-3-yl)oxy]ethyl}-4-(1H-pyrazol-1-yl)phenyl]methanesulfonamide]	194	7160
C[C@H](Oc1cc2c(F)ccc(F)c2nc1N)c1cc(C(=O)O)ccc1-n1cccn1 [Example 19, 3-{(1S)-1-[(2-amino-5,8-difluoroquinolin-3-yl)oxy]ethyl}-4-(1H-pyrazol-1-yl)benzoic Acid]	64	4500
C[C@H](Oc1cc2cc(C(N)=O)ccc2nc1N)c1nc2[nH]ncc2cc1-n1cccn1 [Example 62, 2-amino-3-{(1S)-1-[5-(1H-pyrazol-1-yl)-1H-pyrazolo[3,4-b]pyridin-6-yl]ethoxy}quinoline-6-carboxamide]	40	–
C[C@H](Oc1cc2cc(F)cc(F)c2nc1N)c1cc(-c2noc(=O)[nH]2)ccc1-n1cccn1 [Example 80, (S)-3-(3-(1-((2-amino-6,8-difluoroquinolin-3-yl)oxy)ethyl)-4-(1H-pyrazol-1-yl)phenyl)-1,2,4-oxadiazol-5(4H)-one]	36	–
